Measured values published in patent US7626042B2, “O-substituted hydroxyaryl derivatives” (Institute of Medicinal Molecular Design, Inc., priority 2002, dated 2009).

Tested on: NF-κB activation
Assay: Inhibitory activity against NF-κB activation, luciferase reporter assay under TNF-α stimulation
Type: cell-based, human
Conditions: HepG2 cells, TNF-α 40 ng/ml, 4 hours; for inhibition at 1 µg/mL / inhibition at 10 µg/mL: Homo sapiens, read-out: Inhibitory Ratio of NF-κ B Activation(%)
Description: Inhibitory activity against NF-κB activation was measured by referring to the method of Hill et al. (Cell, (USA), in 1993, Vol. 73, No. 2, p. 395-406). Using a transfection reagent(Effectene; QIAGEN), the human hepatoma cell strain HepG2 was transfected with a plasmid (pNFκ Luc Reporter Plasmid; STRATAGENE) integrated with an oligonucleotide having five tandem copies of NF-κB binding sequences(TGGGGACTTTCCGC) on a upstream region of firefly luciferase gene (Luc) according to the QIAGEN's protocol, and the cells were incubated for 6 to 24 hours. Then the cells were cultured for 4 hours after the addition of TNF-α (40 ng/ml) in the presence of a test compound, and intracellular luciferase activity was measured by using PicaGene LT (TOYO INK MFG Co., Ltd.) and a chemical luminescence measurement apparatus(SPECTRAFluor Plus; TECAN). The inhibitory ratio was measured as a ratio relative to a value of the luciferase activity in the absence of the test compound.

Row | Compound | inhibition at 1 µg/mL (Drug Concentration 1 μg/mL) [%] | inhibition at 10 µg/mL (Drug Concentration 10 μg/mL) [%] | Inhibitory Ratio of NF-κ B Activation(%) (Drug Concentration 1 μg/mL) | Inhibitory Ratio of NF-κ B Activation(%) (Drug Concentration 10 μg/mL)
1 | CC(C)(C)OC(=O)[C@H](Cc1ccccc1)NC(=O)CNC(=O)Oc1ccc(Cl)cc1C(=O)Nc1cc(C(F)(F)F)cc(C(F)(F)F)c1 [Compound 61, (S)-2-[N-({N-[1-(tert-butoxycarbonyl)-2-phenylethyl]carbamoyl}methyl)carbamoyl]oxy-5-chloro-N-[3,5-bis(trifluoromethyl)phenyl]benzamide] | 98.6 | 99.2 | – | –
2 | O=C(CNC(=O)Oc1ccc(Cl)cc1C(=O)Nc1cc(C(F)(F)F)cc(C(F)(F)F)c1)N[C@@H](Cc1ccccc1)C(=O)O [Compound 62] | – | – | 96.8 | 97.8
3 | CC(C)(C)OC(=O)C[C@H](NC(=O)CNC(=O)Oc1ccc(Cl)cc1C(=O)Nc1cc(C(F)(F)F)cc(C(F)(F)F)c1)C(=O)OC(C)(C)C [Compound 63, (S)-2-[N-({N-[1,2-di(tert-butoxycarbonyl)ethyl]carbamoyl}-methyl)carbamoyl]oxy-5-chloro-N-[3,5-bis(trifluoromethyl)phenyl]benzamide] | 97.1 | 98.2 | – | –
4 | O=C(O)C[C@H](NC(=O)CNC(=O)Oc1ccc(Cl)cc1C(=O)Nc1cc(C(F)(F)F)cc(C(F)(F)F)c1)C(=O)O [Compound 64] | – | – | 96.3 | 97.5
5 | CC(C)(C)OC(=O)NCCCC[C@H](NC(=O)CNC(=O)Oc1ccc(Cl)cc1C(=O)Nc1cc(C(F)(F)F)cc(C(F)(F)F)c1)C(=O)OC(C)(C)C [Compound 65] | – | – | 95.8 | 97.3
6 | CSc1ccc(NC(=O)Oc2cc3ccccc3cc2C(=O)Nc2ccccc2)cc1 [Compound 66] | – | – | 12.2 | 41.4
7 | CCN(CC)C(=O)Oc1ccc(Cl)cc1C(=O)Nc1cc(C(F)(F)F)cc(C(F)(F)F)c1 [Compound 68] | – | – | 53.0 | 47.4
8 | CN(C(=O)Oc1ccc(Cl)cc1C(=O)Nc1cc(C(F)(F)F)cc(C(F)(F)F)c1)c1ccccc1 [Compound 69] | – | – | 29.7 | 18.7
9 | O=C(Nc1cc(C(F)(F)F)cc(C(F)(F)F)c1)c1cc(Cl)ccc1OC(=O)N1CCCC1 [Compound 70] | – | – | 48.1 | 89.6
10 | O=C(Nc1cc(C(F)(F)F)cc(C(F)(F)F)c1)c1cc(Cl)ccc1OC(=O)N1CCOCC1 [Compound 71] | – | – | 70.6 | 78.0
11 | CN1CCN(C(=O)Oc2ccc(Cl)cc2C(=O)Nc2cc(C(F)(F)F)cc(C(F)(F)F)c2)CC1 [Compound 72] | – | – | 39.4 | 35.2
12 | O=C(Nc1cc(C(F)(F)F)cc(C(F)(F)F)c1)c1cc(Cl)ccc1OC(=O)N1CCC(C(=O)O)CC1 [Compound 74] | – | – | 56.2 | 58.1
13 | CCOC(=O)CN(CC(=O)OCC)C(=O)Oc1ccc(Cl)cc1C(=O)Nc1cc(C(F)(F)F)cc(C(F)(F)F)c1 [Compound 75, 2-{N,N-bis[(ethoxycarbonyl)methyl]carbamoyl}oxy-5-chloro-N-[3,5-bis(trifluoromethyl)phenyl]benzamide] | 94.3 | 94.9 | – | –
14 | O=C(O)CN(CC(=O)O)C(=O)Oc1ccc(Cl)cc1C(=O)Nc1cc(C(F)(F)F)cc(C(F)(F)F)c1 [Compound 76] | – | – | 98.9 | 98.2
15 | O=C(Nc1cc(C(F)(F)F)cc(C(F)(F)F)c1)c1cc(Br)ccc1OC(=O)N1CCOCC1 [Compound 77, 5-Bromo-2-(morpholinocarbonyl)oxy-N-[3,5-bis(trifluoromethyl)phenyl]benzamide] | 69.7 | 31 | – | –
16 | O=C(Nc1cc(C(F)(F)F)cc(C(F)(F)F)c1)c1cc(C(F)(F)F)ccc1OC(=O)N1CCOCC1 [Compound 79, 2-(Morpholinocarbonyl)oxy-5-trifluoromethyl-N-[3,5-bis(trifluoromethyl)phenyl]-benzamide] | 88.1 | 70.2 | – | –
17 | O=C(Nc1cc(C(F)(F)F)cc(C(F)(F)F)c1)c1ccc(Cl)cc1OC(=O)N1CCOCC1 [Compound 80, 4-Chloro-2-(morpholinocarbonyl)oxy-N-[3,5-bis(trifluoromethyl)phenyl]benzamide] | 91.4 | 68.4 | – | –

Row | Compound | inhibition at 1 µg/mL (Drug Concentration 1 μg/mL) [%] | inhibition at 10 µg/mL (Drug Concentration 10 μg/mL) [%] | Inhibitory Ratio of NF-κ B Activation(%) (Drug Concentration 1 μg/mL) | Inhibitory Ratio of NF-κ B Activation(%) (Drug Concentration 10 μg/mL)
18 | O=C(Nc1cc(C(F)(F)F)cc(C(F)(F)F)c1)c1cc(-c2ccccc2)ccc1OC(=O)N1CCOCC1 [Compound 81, 2-(Morpholinocarbonyl)oxy-5-phenyl-N-[3,5-bis(trifluoromethyl)phenyl]benzamide] | 26.4 | 29.2 | – | –
19 | O=C(Nc1cc(C(F)(F)F)cc(C(F)(F)F)c1)c1c(OC(=O)N2CCOCC2)ccc2ccccc12 [Compound 83, 2-(Morpholinocarbonyl)oxy-N-[3,5-bis(trifluoromethyl)phenyl]-1-naphthamide] | 23.5 | 18 | – | –
20 | O=C(Nc1cc(C(F)(F)F)ccc1Cl)c1cc(Br)ccc1OC(=O)N1CCOCC1 [Compound 85, 5-Bromo-N-[2-chloro-5-(trifluoromethyl)phenyl]-2-[(morpholinocarbonyl)oxy]-benzamide] | 21.4 | 29.8 | – | –
21 | COc1ccc(C(F)(F)F)cc1NC(=O)c1cc(Br)ccc1OC(=O)N1CCOCC1 [Compound 86, 5-Bromo-N-[2-methoxy-5-(trifluoromethyl)phenyl]-2-[(morpholinocarbonyl)oxy]-benzamide] | 23.4 | 11.9 | – | –
22 | COc1cc(NC(=O)c2cc(Br)ccc2OC(=O)N2CCOCC2)cc(C(F)(F)F)c1 [Compound 87, 5-Bromo-N-[3-methoxy-5-(trifluoromethyl)phenyl]-2-[(morpholinocarbonyl)oxy]-benzamide] | 29.7 | 55.4 | – | –
23 | O=C(Nc1cc(Cl)cc(Cl)c1)c1cc(Cl)ccc1OC(=O)N1CCOCC1 [Compound 89, 5-Chloro-N-(3,5-dichlorophenyl)-2-[(morpholinocarbonyl)oxy]benzamide] | 48.3 | 35.9 | – | –
24 | CC(C)(C)C(=O)c1sc(NC(=O)c2cc(Cl)ccc2OC(=O)N2CCOCC2)nc1C(C)(C)C [Compound 92, 5-Chloro-N-{4-[(1,1-dimethyl)ethyl]-5-[(2,2-dimethyl)propionyl]thiazol-2-yl}-2-[(morpholinocarbonyl)oxy]benzamide] | 86.3 | 93.9 | – | –
25 | COc1ccc(Cl)cc1C(=O)Nc1cc(C(F)(F)F)cc(C(F)(F)F)c1 [Compound 93] | – | – | 44.3 | 24.0
26 | COc1ccc(C(C)(C)C)cc1C(=O)Nc1cc(C(F)(F)F)cc(C(F)(F)F)c1 [Compound 94] | – | – | 56.1 | 51.7
27 | CCOc1ccc(Cl)cc1C(=O)Nc1cc(C(F)(F)F)cc(C(F)(F)F)c1 [Compound 95] | – | – | 31.3 | 71.4
28 | CC(C)Oc1ccc(Cl)cc1C(=O)Nc1cc(C(F)(F)F)cc(C(F)(F)F)c1 [Compound 96] | – | – | 54.1 | 96.1
29 | COCOc1ccc(Cl)cc1C(=O)Nc1cc(C(F)(F)F)cc(C(F)(F)F)c1 [Compound 97] | – | – | 21.6 | 94.4
30 | CC(=O)OCOc1ccc(Cl)cc1C(=O)Nc1cc(C(F)(F)F)cc(C(F)(F)F)c1 [Compound 98] | – | – | 94.9 | 96.6
31 | CC(C)(C)C(=O)OCOc1ccc(Cl)cc1C(=O)Nc1cc(C(F)(F)F)cc(C(F)(F)F)c1 [Compound 99] | – | – | 92.3 | 94.7
32 | CCOC(=O)OC(C)Oc1ccc(Cl)cc1C(=O)Nc1cc(C(F)(F)F)cc(C(F)(F)F)c1 (stereo not drawn) [Compound 100] | – | – | 96.1 | 98.5
33 | O=C(Nc1cc(C(F)(F)F)cc(C(F)(F)F)c1)c1cc(Cl)ccc1OCOC(=O)N1CCCCC1 [Compound 101, 5-Chloro-2-[(piperidinocarbonyl)oxy]methoxy-N-[3,5-bis(trifluoromethyl)phenyl]-benzamide] | 41 | 42.8 | – | –
